biological target: T1, MCH R1 (melanine-concentrating hormone receptor-1) (Homo sapiens, UniProt Q99705); assay: Inhibitory effects on MCH R1 binding (Eu-MCH time-resolved fluorescence binding assay); details: concentration inhibiting the binding of MCH (Eu-MCH, 2 nM) to MCH R1 by 50% in vitro; TRF readout; test range 1 nM to 10 μM; read-out: IC50
T1 construct: purchased Euroscreen, Gosselies, Belgium
Protocol: First, MCH R1 (melanine-concentrating hormone receptor-1; Euroscreen, Gosselies, Belgium), 1 μM Europium-labeled melanine-concentrating hormone (Eu-MCH, PerkinElmer, Turku, Finland) and 1 mM melanine-concentrating hormone (MCH, #070-47, Phoenix, Belmont Calif., USA) were kept at 4° C. for ready use. 1 μM Eu-MCH and 1 mM MCH were diluted with an experimental solution (25 mM HEPES pH 7.4, 5 mM MgCl2, 1 mM CaCl2 and 0.5% (w/w) BSA) to 8 nM (final reaction concentration: 2 nM) and 2 μM (final reaction concentration: 0.5 μM), respectively. The compounds prepared in the Examples (“Test compounds”) were dissolved in the experimental solution in concentration of 4 nM to 40 μM (final reaction concentration: 1 nM to 10 μM). MCH R1 (200 assays/vial) was homogeneously dispersed in the experimental solution.
Then, 100 μl/well of the following reaction mixture was added to the wells of a microplate (Multiwell 96 well filter plates PN5020, Pall Co., Ann Arbor, Mich., USA) equipped with a filter paper, with an 8-channel pipette (multi 8-channel, Eppendorf, Hamburg, Germany). Specifically, to the wells of a non-specific binding control group, 25 μl of Eu-MCH, 50 μl of MCH R1 and 25 μl of MCH were added. Further, 25 μl of the experimental solution supplemented with 10% (w/w) of DMSO, 25 μl of Eu-MCH and 50 μl of MCH R1 were added to the wells of a total binding control group, while 25 μl of the test compounds, 25 μl Eu-MCH and 50 μl of MCH R1 were added to the wells of an experimental group. Subsequently, the microplate was shaken gently for 15 seconds and kept at room temperature for 90 minutes to allow the reaction to take place. Then, the plate was washed with a microplate washer (EMBLA, Molecular Devices) by washing three times with 300 μl of a washing solution (25 mM HEPES pH 7.4, 5 mM MgCl2, 1 mM CaCl2) to remove the residual unreacted Eu-MCH. Moisture was removed from the bottom of the wells and 150 μl of dissociation solution (DELFIA Enhancement solution, PerkinElmer, Turku, Finland) was added to each well, followed by keeping the plate at room temperature for 2 to 4 hours. Subsequently, time-resolved fluorescence (TRF) values were measured with a multilabel counter (Victor2, PerkinElmer, Turku, Finland) (emission wave length: 615 nm, excitation wave length: 340 nm). The inhibition rate based on the time-resolved fluorescence data was calculated using the following Equation (I). Inhibition rate of time-resolved fluorescence (%)=[(Average TRF value of the total binding group−Time-resolved fluorescence value of the test compound)/(Average TRF value of the total binding group−Average TRF value of the non-specific binding group)]×100 (I)

T1 sequence (Q99705 whole entry, species assumed): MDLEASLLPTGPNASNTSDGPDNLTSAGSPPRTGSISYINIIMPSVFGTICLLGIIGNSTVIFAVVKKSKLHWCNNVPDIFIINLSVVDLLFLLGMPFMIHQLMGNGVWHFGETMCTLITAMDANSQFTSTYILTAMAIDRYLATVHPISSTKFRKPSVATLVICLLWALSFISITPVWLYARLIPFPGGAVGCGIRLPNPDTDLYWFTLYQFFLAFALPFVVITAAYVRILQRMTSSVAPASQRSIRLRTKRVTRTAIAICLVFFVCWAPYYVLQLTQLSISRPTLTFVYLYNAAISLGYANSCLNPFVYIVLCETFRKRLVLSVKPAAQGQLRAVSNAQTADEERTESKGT

SMILES	IC50 [µM]
CC(=O)Nc1cccc(C2CCN(CCCn3c(-c4cccnc4)nc4cc(Cl)ccc43)CC2)c1 [Example 116, 5-chloro-2-(pyridin-3-yl)-1-{3-[4-(3-acetamidophenyl)piperidin-1-yl]propyl}-1H-benzimidazole]	0.048
CC(=O)Nc1cccc(C2CCN(CCCn3c(-c4ccc(Cl)cc4)nc4ccc(C)cc43)CC2)c1 [Example 24, 2-(4-chlorophenyl)-1-{3-[4-(3-acetylaminophenyl)piperidin-1-yl]propyl}-6-methyl-1H-benzimidazole]	0.01
CCCCc1nc2c(C)c(-c3ccccc3)c(C)nc2n1CCCN1CCC(c2cccc(NC(=O)C(C)C)c2)CC1 [Example 100, 2-butyl-5,7-dimethyl-6-phenyl-3-{3-[4-(3-isobutyrylaminophenyl)piperidin-1-yl]propyl}-3H-imidazo[4,5-b]pyridine]	0.32
CC(=O)Nc1cccc(C2CCN(CCCn3c(-c4ccc(F)cc4)nc4cc(Cl)ccc43)CC2)c1 [Example 84, 2-(4-fluorophenyl)-1-{3-[4-(3-acetylaminophenyl)piperidin-1-yl]propyl}-5-chloro-1H-benzimidazole]	0.05
COc1ccc(Cl)cc1-c1nc2ccccc2n1CCCN1CCC(c2cccc(NC(C)=O)c2)CC1 [Example 56, 2-(5-chloro-2-methoxyphenyl)-1-{3-[4-(3-acetylaminophenyl)piperidin-1-yl]propyl}-1H-benzimidazole]	0.066
CC(=O)Nc1cccc(C2CCN(CCCn3c(-c4ccccc4Cl)nc4ccccc43)CC2)c1 [Example 9, 2-(2-chlorophenyl)-1-{3-[4-(3-acetylaminophenyl)piperidin-1-yl]propyl}-1H-benzimidazole]	0.01
O=C(Nc1cccc(C2CCN(CCCn3c(-c4ccc(Cl)cc4)nc4ccccc43)CC2)c1)c1ccccc1 [Example 65, 2-(4-chlorophenyl)-1-{3-[4-(3-benzoylaminophenyl)piperidin-1-yl]propyl}-1H-benzimidazole]	0.019
CC(=O)Nc1cccc(C2CCN(CCCn3c(-c4ccc(F)c(F)c4)nc4ccccc43)CC2)c1 [Example 50, 2-(3,4-difluorophenyl)-1-{3-[4-(3-acetylaminophenyl)piperidin-1-yl]propyl}-1H-benzimidazole]	0.004
CC(=O)Nc1cccc(C2CCN(CCCn3c(-c4ccncc4)nc4ccccc43)CC2)c1 [Example 106, 2-(pyridin-4-yl)-1-{3-[4-(3-acetamidophenyl)piperidin-1-yl]propyl}-1H-benzimidazole]	0.15
CCCCc1nc2cc(-c3ccccn3)c(C)nc2n1CCCN1CCC(c2cccc(NC(C)=O)c2)CC1 [Example 97, 2-butyl-5-methyl-6-pyridin-2-yl-3-{3-[4-(3-acetylaminophenyl)piperidin-1-yl]propyl}-3H-imidazo[4,5-b]pyridine]	0.07
COc1ccc2nc(-c3ccc(Cl)cc3)n(CCCN3CCC(c4cccc(NC(C)=O)c4)CC3)c2c1 [Example 28, 2-(4-chlorophenyl)-1-{3-[4-(3-acetylaminophenyl)piperidin-1-yl]propyl}-6-methoxy-1H-benzimidazole]	0.055
CC(=O)Nc1cccc(C2CCN(CCCn3c(-c4cccnc4)nc4ccccc43)CC2)c1 [Example 105, 2-(pyridin-3-yl)-1-{3-[4-(3-acetamidophenyl)piperidin-1-yl]propyl}-1H-benzimidazole]	0.06
CC(=O)Nc1cccc(C2CCN(CCCn3c(-c4ccc(C#N)cc4)nc4ccccc43)CC2)c1 [Example 51, 2-(4-cyanophenyl)-1-{3-[4-(3-acetylaminophenyl)piperidin-1-yl]propyl}-1H-benzimidazole]	0.016
CC(=O)Nc1cccc(C2CCN(CCCn3c(-c4ccc(Cl)cc4)nc4ccc(Cl)cc43)CC2)c1 [Example 25, 2-(4-chlorophenyl)-1-{3-[4-(3-acetylaminophenyl)piperidin-1-yl]propyl}-6-chloro-1H-benzimidazole]	0.013
COc1ncccc1-c1nc2ccccc2n1CCCN1CCC(c2cccc(NC(C)=O)c2)CC1 [Example 115, 2-(2-methoxypyridin-3-yl)-1-{3-[4-(3-acetamidophenyl)piperidin-1-yl]propyl}-1H-benzimidazole]	0.067
CC(=O)Nc1cccc(C2CCN(CCCn3c(-c4cccc(Cl)c4)nc4ccccc43)CC2)c1 [Example 10, 2-(3-chlorophenyl)-1-{3-[4-(3-acetylaminophenyl)piperidin-1-yl]propyl}-1H-benzimidazole]	0.005
CC(=O)Nc1cccc(C2CCN(CCCn3c(-c4cccc(C#N)c4)nc4ccccc43)CC2)c1 [Example 52, 2-(3-cyanophenyl)-1-{3-[4-(3-acetylaminophenyl)piperidin-1-yl]propyl}-1H-benzimidazole]	0.015
CC(=O)Nc1cccc(C2CCN(CCCn3c(-c4cccn4C)nc4cc(C)c(C)cc43)CC2)c1 [Example 121, 5,6-dimethyl-2-(1-methylpyrrol-2-yl)-1-{3-[4-(3-acetamidophenyl)piperidin-1-yl]propyl}-1H-benzimidazole]	0.005
COC(=O)c1cccc(-c2nc3ccccc3n2CCCN2CCC(c3cccc(NC(C)=O)c3)CC2)c1 [Example 76, 2-(3-methoxycarbonylphenyl)-1-{3-[4-(3-acetylaminophenyl)piperidin-1-yl]propyl}-1H-benzimidazole]	0.06
CC(=O)Nc1cccc(C2CCN(CCCn3c(-c4ccc(F)cc4)nc4ccccc43)CC2)c1 [Example 48, 2-(4-fluorophenyl)-1-{3-[4-(3-acetylaminophenyl)piperidin-1-yl]propyl}-1H-benzimidazole]	0.056

The remaining lines, values ahead:

IC50 [µM]	SMILES
0.024	CC(=O)Nc1cccc(C2CCN(CCCn3c(-c4ccc(Cl)c(Cl)c4)nc4ccccc43)CC2)c1 [Example 12, 2-(3,4-dichlorophenyl)-1-{3-[4-(3-acetylaminophenyl)piperidin-1-yl]propyl}-1H-benzimidazole]
0.001	CC(=O)Nc1cccc(C2CCN(CCCn3c(-c4cccc(Br)c4)nc4ccccc43)CC2)c1 [Example 13, 2-(3-bromophenyl)-1-{3-[4-(3-acetylaminophenyl)piperidin-1-yl]propyl}-1H-benzimidazole]
0.004	CC(=O)Nc1cccc(C2CCN(CCCn3c(-c4ccc(F)cc4Cl)nc4ccccc43)CC2)c1 [Example 54, 2-(2-chloro-4-fluorophenyl)-1-{3-[4-(3-acetylaminophenyl)piperidin-1-yl]propyl}-1H-benzimidazole]
0.008	CC(=O)Nc1cccc(C2CCN(CCCn3c(-c4ccc(-c5ccccc5)cc4)nc4ccccc43)CC2)c1 [Example 46, 2-(4-biphenyl)-1-{3-[4-(3-acetylaminophenyl)piperidin-1-yl]propyl}-1H-benzimidazole]
0.077	CC(=O)Nc1cccc(C2CCN(CCCn3c(-c4cc(F)c(F)c(F)c4F)nc4ccccc43)CC2)c1 [Example 44, 2-(2,3,4,5-tetrafluorophenyl)-1-{3-[4-(3-acetylaminophenyl)piperidin-1-yl]propyl}-1H-benzimidazole]
0.26	CC(=O)Nc1cccc(C2CCN(CCCn3c(-c4ccccc4)nc4ccncc43)CC2)c1 [Example 72, 2-phenyl-3-{3-[4-(3-acetylaminophenyl)piperidin-1-yl]propyl}-3H-imidazo[4,5-c]pyridine]
0.007	CC(=O)Nc1cccc(C2CCN(CCCn3c(-c4ccc(Cl)cc4)nc4c(C)c(C)ccc43)CC2)c1 [Example 39, 2-(4-chlorophenyl)-1-{3-[4-(3-acetylaminophenyl)piperidin-1-yl]propyl}-4,5-dimethyl-1H-benzimidazole]
0.047	CC(=O)Nc1cccc(C2CCN(CCCn3c(Cc4cccnc4)nc4ccccc43)CC2)c1 [Example 126, 2-(pyridin-3-ylmethyl)-1-{3-[4-(3-acetamidophenyl)piperidin-1-yl]propyl}-1H-benzimidazole]
0.013	CC(=O)Nc1cccc(C2CCN(CCCn3c(-c4ccc(F)cc4)nc4ccc(Cl)cc43)CC2)c1 [Example 30, 2-(4-fluorophenyl)-1-{3-[4-(3-acetylaminophenyl)piperidin-1-yl]propyl}-6-chloro-1H-benzimidazole]
